Data on 54 compounds can be found in patent US8697694B2, “Substituted pyridine and pyrimidine derivatives and their use in treating viral infections” (priority 2008, dated 2014).

The first test concerns HCV replicon cells. Briefly: Cell-based HCV replicon assay (replicon RNA level by real time PCR, Taqman). As to conditions: HCV replicon cells, harvested day 3, replicon RNA by real time PCR; reported as range class; read-out: EC90 (μM) range. An outline of the steps: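 HCV replicon cells treated 3 days with 10 serial 2-fold compound dilutions (top 25 μM to 1 μM; 0.5% DMSO, 10% FBS). Replicon RNA quantified by multiplex Taqman RT-PCR (NS5B amplicon, GAPDH control); EC50 and EC90 = concentrations giving ΔCT of 1 and 3.2 over baseline.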
In general terms: A replicon is a self-replicating genome or part of one, used to study replication in cells.
For orientation: EC90 means the concentration at which the effect reaches the 90% level. Consider `COc1cc2cc(-c3c(Cl)nc(N(C)C)nc3N[C@@H]3C[C@H](CO)[C@@H](O)[C@H]3O)oc2c(C)n1` [Example 12], for which the concentration for an effect of 90% (EC90) is 0.5 to 5 µM.

Still in this test, the particulars now being: Hepatitis C virus, 72 h, HCV replicon cells, harvested day 3, replicon RNA by real time PCR; reported as range class; read-out: EC90 (μM) range.
For `Cc1nc(NCCOC(C)C)nc(N[C@@H]2C[C@H](CO)[C@@H](O)[C@H]2O)c1-c1nc2ccccc2s1` [Example 220], the EC90 is < 0.5 µM. Still for that read-out and setting: under `Nc1nc(Cl)c(-c2cc3cnc(=O)[nH]c3o2)c(N[C@@H]2C[C@H](CO)[C@@H](O)[C@H]2O)n1` [Example 307] stands > 5 µM. `CCCc1cc2cc(-c3c(Cl)nc(N)nc3N[C@@H]3C[C@H](CO)[C@@H](O)[C@H]3O)oc2cn1` [Example 410]: the EC90 is < 0.5 µM.

On to `Nc1nc(Cl)c(-c2cc3cc(C(F)(F)F)ccc3o2)c(N[C@@H]2C[C@H](CO)[C@@H](O)[C@H]2O)n1` [Example 108], for which the EC90 was > 5 µM.

Consider `Nc1nc(Cl)c(-c2nc3ccccc3o2)c(N[C@@H]2C[C@H](CO)[C@@H](O)[C@H]2O)n1` [Example 109], for which the 90% effect concentration (EC90) is < 0.5 µM. The same measure, in the same setting: under `Cc1ccc2oc(-c3c(Cl)nc(N)nc3N[C@@H]3C[C@H](CO)[C@H]4OC(C)(C)O[C@H]43)nc2c1` [Example 192] stands > 5 µM. The same measure, in the same setting: for `CCN(CC)c1nc(Cl)c(-c2nc3ccccc3s2)c(N[C@@H]2C[C@H](CO)[C@@H](O)[C@H]2O)n1` [Example 411] the value was 0.5 to 5 µM. Take `CC(C)OCCNc1nc(Cl)c(-c2nc3ccccc3s2)c(N[C@@H]2C[C@H](CO)[C@@H](O)[C@H]2O)n1` [Example 219]: the EC90 was < 0.5 µM. Still for that read-out and setting: under `Nc1nc(N[C@@H]2C[C@H](CO)[C@@H](O)[C@H]2O)c(-c2ncco2)c(-c2ncco2)n1` [Example 107] stands > 5 µM.

The test is the same for the next values; noted with them: Hepatitis C virus, 72 h, HCV replicon cells, harvested on day 3, replicon RNA by real time PCR; calculated EC90 reported as range class; read-out: EC90 (μM) range.
In the case of `Cc1nc(NCC(C)(C)C)nc(N[C@@H]2C[C@H](CO)[C@@H](O)[C@H]2O)c1-c1nc2ccccc2s1` [Example 437], the EC90 is < 0.5 µM. On the same count and under the same terms, for `Cc1cccc(CNc2nc(C)c(-c3nc4ccccc4s3)c(N[C@@H]3C[C@H](CO)[C@H]4OC(C)(C)O[C@H]43)n2)c1` [Example 485] the value was 0.5 to 5 µM; for `CCc1cc2cc(-c3c(C)nc(NCC(F)(F)F)nc3N[C@@H]3C[C@H](CO)[C@@H](O)[C@H]3O)oc2cn1` [Example 517], < 0.5 µM; for `COCCNc1nc(C)c(-c2cc3cc(C(F)(F)F)ncc3o2)c(N[C@@H]2C[C@H](CO)[C@@H](O)[C@H]2O)n1` [Example 139], 0.5 to 5 µM. As to `Cc1nc(NCc2cccs2)nc(N[C@@H]2CCCC2=O)c1-c1nc2ccccc2s1` (racemic) [Example 338], the EC90 is < 0.5 µM.

Consider `Cc1cccnc1CNc1nc(C)c(-c2nc3ccccc3s2)c(N[C@@H]2C[C@H](CO)[C@H]3OC(C)(C)O[C@H]32)n1` [Example 498], for which the 90% effect concentration (EC90) is > 5 µM. Turning to `Cc1nc(NCc2ccco2)nc(N[C@@H]2C[C@H](CO)[C@H]3OC(C)(C)O[C@H]32)c1-c1nc2ccccc2s1` [Example 469], the EC90 is < 0.5 µM. On to `Cc1nc(NCc2cccs2)nc(N[C@@H]2C[C@H](CO)[C@@H](O)[C@H]2O)c1-c1nc2ccccc2s1` [Example 329], for which the EC90 is < 0.5 µM. The same measure, in the same setting: for `COCc1cc2cc(-c3c(C)nc(NCc4nccs4)nc3N[C@@H]3C[C@H](CO)[C@@H](O)[C@H]3O)oc2cn1` [Example 340] the value was < 0.5 µM; for `Cc1nc(NCCN(C)C)nc(N[C@@H]2C[C@H](CO)[C@H]3OC(C)(C)O[C@H]32)c1-c1nc2ccccc2s1` [Example 245], > 5 µM. The same measure, in the same setting: for `CCCCCNc1nc(C)c(-c2nc3ccccc3s2)c(N[C@@H]2CC[C@@H](O)[C@H]2O)n1` [Example 327] the value was < 0.5 µM.

Staying with this test, now noted: Hepatitis C virus, 72 h, HCV replicon cells, replicon RNA level by real time PCR (Taqman), day 3; calculated EC90; read-out: EC90 (μM) range.
Turning to `Cc1nc(NCC(F)(F)F)nc(N[C@@H]2C[C@H](CO)[C@@H](O)[C@H]2O)c1-c1nc2cnccc2o1` [Example 2001], the EC90 is 0.5 to 5 µM.

The same test, now with this note: Hepatitis C virus, 72 h, HCV replicon cells, replicon RNA level by real time PCR (Taqman), harvested on day 3; calculated EC90 reported as range class; read-out: EC90 (μM) range.
`COc1nc(C)cc2cc(-c3c(C)nc(NCC4CC4)nc3N[C@@H]3C[C@H](CO)[C@@H](O)[C@H]3O)oc12` [Example 1239]: the EC90 was 0.5 to 5 µM. For the compound `Cc1nc(NCc2ccco2)nc(N[C@@H]2C[C@H](CO)[C@@H](O)[C@H]2O)c1-c1nc2cnccc2s1` [Example 1215], the EC90 is < 0.5 µM. Same read-out and setting: under `CCOc1nc(C)cc2cc(-c3c(C)nc(NCC(F)(F)F)nc3N[C@@H]3C[C@H](CO)[C@@H](O)[C@H]3O)oc12` [Example 1246] stands < 0.5 µM. Still for that read-out and setting: for `Cc1nc(NCC(C)(C)C)nc(N2CCC[C@H]2CO)c1-c1nc2ccccc2s1` [Example 1223] the value was > 5 µM; for `CC(=O)NC[C@H]1C[C@@H](Nc2nc(NCc3cccs3)nc(C)c2-c2nc3ccccc3s2)[C@H](O)[C@@H]1O` [Example 1331], < 0.5 µM; for `COCCNC[C@H]1C[C@@H](Nc2nc(NCC(F)(F)F)nc(C)c2-c2nc3ccccc3s2)[C@H](O)[C@@H]1O` [Example 1069], 0.5 to 5 µM. Still for that read-out and setting: under `COc1cc(COc2nc(C)c(-c3nc4ccccc4s3)c(N[C@@H]3C[C@H](CO)[C@@H](O)[C@H]3O)n2)cc(OC)c1` [Example 1210] stands > 5 µM. For `CCOCCNc1nc(C)c(-c2nc3ccccc3o2)c(N[C@@H]2C[C@H](CO)[C@@H](O)[C@H]2O)n1` [Example 529], the EC90 was < 0.5 µM. With `Cc1nc(Nc2ccc(F)cc2)nc(N[C@@H]2C[C@H](CO)[C@@H](O)[C@H]2O)c1-c1nc2cnccc2s1` [Example 1053], the EC90 is < 0.5 µM. Same read-out and setting: for `COc1cccc2sc(-c3c(C)nc(NCC4CC4)nc3N[C@@H]3C[C@H](CO)[C@@H](O)[C@H]3O)nc12` [Example 1067] the value was < 0.5 µM. Still for that read-out and setting: for `Cc1nc(NCc2cc(Cl)cc(Cl)c2)nc(N[C@@H]2C[C@H](CO)[C@H]3OC(C)(C)O[C@H]32)c1-c1nc2ccccc2s1` [Example 1113] the value was 0.5 to 5 µM. Still for that read-out and setting: for `Cc1cc2sc(-c3c(C)nc(NCC(F)(F)F)nc3N[C@@H]3C[C@H](CO)[C@@H](O)[C@H]3O)nc2c(C)n1` [Example 1135] the value was < 0.5 µM. Regarding `Cc1nc(NCC2CC2)nc(N[C@@H]2C[C@H](CO)[C@@H](O)[C@H]2O)c1-c1cc2cc(OCC(C)C)nc(C)c2o1` [Example 1054], the EC90 is 0.5 to 5 µM. Same read-out and setting: for `Cc1nc(NCc2ccco2)nc(N[C@@H]2C[C@H](CO)[C@@H](O)[C@H]2O)c1-c1nc2ccccc2s1` [Example 1110] the value was < 0.5 µM; for `Cc1nc(NCC(C)(C)CO)nc(N[C@@H]2C[C@H](CO)[C@@H](O)[C@H]2O)c1-c1nc2cnccc2s1` [Example 1317], < 0.5 µM; for `Cc1nc(Nc2ccc(F)cc2)nc(N[C@@H]2C[C@H](CO)[C@@H](O)[C@H]2O)c1-c1nc2ccccc2s1` [Example 1044], 0.5 to 5 µM. On to `Cc1ccc([C@@H](C)Nc2nc(C)c(-c3nc4ccccc4s3)c(N[C@@H]3C[C@H](CO)[C@@H](O)[C@H]3O)n2)cc1` [Example 1234], for which the EC90 was > 5 µM.

Consider `COc1cnccc1Nc1nc(C)c(-c2nc3ccccc3s2)c(N[C@@H]2C[C@H](CO)[C@H]3OC(C)(C)O[C@H]32)n1` [Example 1130], for which the EC90 is > 5 µM.

On to `COc1cc(CNc2nc(C)c(-c3nc4ccccc4s3)c(N[C@@H]3CC[C@@H](O)[C@H]3O)n2)cc(OC)c1` [Example 1206], for which the EC90 is 0.5 to 5 µM. Take `CC(C)(C)CNc1nc(CF)c(-c2nc3ccccc3s2)c(N[C@@H]2C[C@H](CO)[C@@H](O)[C@H]2O)n1` [Example 1120]: the EC90 is > 5 µM.

Staying with this test, now noted: Hepatitis C virus, 72 h, HCV replicon cells, replicon RNA level by real time PCR, harvested day 3; read-out: EC90 (μM) range.
For `Cc1nc(NCC(F)(F)F)nc(N[C@@H]2C[C@H](C(C)O)[C@@H](O)[C@H]2O)c1-c1nc2ccccc2s1` (single isomer, unassigned) [Example 1643], the EC90 is < 0.5 µM. The same measure, in the same setting: for `Cc1nc(NCC(F)(F)F)nc(NC2CCNCC2)c1-c1nc2ccccc2s1` [Example 1516] the value was 0.5 to 5 µM; for `Cc1nc(N[C@H](C)C2CC2)nc(N[C@@H]2CC[C@@H](O)[C@@]2(C)O)c1-c1nc2cnccc2s1` [Example 1811], < 0.5 µM; for `Cc1nc(NCC(F)(F)F)nc(N[C@@H]2C[C@H](CN3CCCS3(=O)=O)[C@@H](O)[C@H]2O)c1-c1nc2ccccc2s1` [Example 1396], < 0.5 µM.

On to `Cc1nc(N[C@H](c2ccc(-n3cccn3)cc2)C(F)(F)F)nc(N[C@@H]2C[C@H](CO)[C@@H](O)[C@H]2O)c1-c1nc2c(C)nccc2s1` [Example 1530], for which the EC90 is > 5 µM. On the same count and under the same terms, under `Cc1nc(N[C@@H](c2ccccc2)C(F)(F)F)nc(N[C@@H]2C[C@H](CO)[C@@H](O)[C@H]2O)c1-c1nc2c(C)nccc2s1` [Example 1353] stands < 0.5 µM; under `Cc1nc(N[C@@H](c2ccsc2)C(F)(F)F)nc(N[C@@H]2C[C@H](CO)[C@@H](O)[C@H]2O)c1-c1nc2ccccc2s1` [Example 1703], 0.5 to 5 µM; under `CCOCCNc1nc(C)c(-c2nc3cnccc3s2)c(N[C@@H]2CC[C@@H](O)[C@@]2(C)O)n1` [Example 1819], < 0.5 µM. Consider `CCO[C@@H]1[C@H](O)[C@@H](CO)C[C@H]1Nc1nc(NCC(F)(F)F)nc(C)c1-c1nc2ccccc2s1` [Example 1352], for which the EC90 is < 0.5 µM.

Take `CCCc1nccc2sc(-c3c(C)nc(N[C@H](C)C4CC4)nc3N[C@@H]3C[C@H](CO)[C@@H](O)[C@H]3O)nc12` [Example 1346]: the EC90 is < 0.5 µM.

Regarding `Cc1nc(N[C@H](C)C2CC2)nc(N[C@@H]2C[C@@H](C(C)O)[C@@H](O)[C@H]2O)c1-c1nc2cnccc2s1` (stereo partly drawn) [Example 1651], the EC90 was < 0.5 µM. Take `CO[C@@H]1[C@H](O)[C@@H](CO)C[C@H]1Nc1nc(N[C@H](C)c2ccc(C)cc2)nc(C)c1-c1nc2cnccc2s1` [Example 1350]: the EC90 was < 0.5 µM.
